From PMC7059547, “Synthesis and herbicidal activities of aryloxyacetic acid derivatives as HPPD inhibitors” (Beilstein Journal of Organic Chemistry, 2020)
Entries after “also recorded” stand apart in the source; their conditions may differ. Like-named read-outs stand apart in the source and are kept apart here.

How the values were obtained:
[1] = target: T1, Arabidopsis thaliana HPPD (AtHPPD) (Arabidopsis thaliana, UniProt P93836); assay: AtHPPD enzyme inhibition study; type: biochemical
T1 construct: made in house
T1 sequence (P93836 1-445): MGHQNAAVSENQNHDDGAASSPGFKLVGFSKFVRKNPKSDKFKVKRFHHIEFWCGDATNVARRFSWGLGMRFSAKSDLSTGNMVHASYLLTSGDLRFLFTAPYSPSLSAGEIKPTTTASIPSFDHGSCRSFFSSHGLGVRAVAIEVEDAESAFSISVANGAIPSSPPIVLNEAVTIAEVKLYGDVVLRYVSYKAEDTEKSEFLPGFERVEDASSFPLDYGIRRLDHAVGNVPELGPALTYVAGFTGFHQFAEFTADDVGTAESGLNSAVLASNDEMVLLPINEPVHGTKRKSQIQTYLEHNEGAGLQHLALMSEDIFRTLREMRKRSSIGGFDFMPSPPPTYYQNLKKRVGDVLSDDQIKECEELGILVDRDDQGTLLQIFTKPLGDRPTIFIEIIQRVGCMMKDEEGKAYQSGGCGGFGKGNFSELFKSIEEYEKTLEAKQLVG
Description: AtHPPD was prepared and puriﬁed according to the reported methods in the literature [19–2035–37].

[2] = system: E. crus-galli, S. faberii, D. sanguinalis, A. retroflexus, E. prostrata, A. juncea; assay: Post-emergence greenhouse herbicidal activity; type: in vivo; set-up: Sum of inhibition rate: scale not given here; settings: 150 g ai/ha; for Sum of inhibition rate / herbicidal activity (in words): post-emergence; for Sum of inhibition rate: sum over six weeds (AJ, AR, EP, DS, EC, SF), 18 days after treatment
rice = assay: Postemergence crop safety, rice; type: in vivo; settings: 150 g ai/ha, four-leaf stage, after 15 days
Description: (§1) The representative crops, rice, wheat, maize, cotton, soybean, and canola were selected to test the crop safety of compound II3, II4, and II5. The six crops were separately planted in ﬂowerpots (12 cm diameter) containing the composite nutrient soil and grown at room temperature. When the crops had reached the four-leaf stage, the safety experiments were conducted at the rate of 150 g ai/ha. After 15 days, the ﬁnal results of crop safety were evaluated with two duplicates per experiment (Table 3).

wheat = assay: Postemergence crop safety, wheat; type: in vivo; settings: 150 g ai/ha; for % injury wheat: postemergence, four-leaf stage, after 15 days
Description: as §1

maize = assay: Postemergence crop safety, maize; type: in vivo; settings: 150 g ai/ha; for % injury maize: postemergence, four-leaf stage, after 15 days
Description: as §1

cotton = assay: Postemergence crop safety, cotton; type: in vivo; settings: 150 g ai/ha, four-leaf stage, after 15 days
Description: as §1

soybean = assay: Postemergence crop safety, soybean; type: in vivo; settings: 150 g ai/ha, four-leaf stage, after 15 days
Description: as §1

canola = assay: Postemergence crop safety, canola; type: in vivo; settings: 150 g ai/ha, four-leaf stage, after 15 days
Description: as §1

SMILES | Ki ([1]; read-out: AtHPPD inhibition Ki) [nM] | Sum of inhibition rate [2] | also measured
Cn1nc(C2CC2)c(C(=O)COc2ccc([N+](=O)[O-])cc2Cl)c1O [I24] | 260 ± 12 | 110 | 
Cn1nc(C(F)(F)F)c(C(=O)COc2ccc([N+](=O)[O-])cc2Cl)c1O [I25] | 210 ± 43 | 100 | 
O=C1CCCC(O)=C1C(=O)COc1cc(Cl)ccc1Oc1ccc(Cl)cc1Cl [I26] | 1900 ± 1 | 30 | 
Cc1ccc(OCC(=O)C2=C(O)CCCC2=O)c(C)c1 [I30] | 2200 ± 34 | 40 | 
Cc1ccc(OCC(=O)C2=C(O)CC(C)(C)CC2=O)c(C)c1 [I31] | 3100 ± 340 | 20 | 
Cc1ccc(OCC(=O)c2c(C)nn(C)c2O)c(C)c1 [I32] | 2000 ± 9 | 30 | 
Cc1ccc(OCC(=O)c2c(C3CC3)nn(C)c2O)c(C)c1 [I33] | 2800 ± 45 | 30 | 
Cc1ccc(OCC(=O)c2c(C(F)(F)F)nn(C)c2O)c(C)c1 [I34] | 2800 ± 670 | 30 | 
COc1cc(C)ccc1OCC(=O)C1=C(O)CCCC1=O [I35] |  | 40 | Ki [1]: 3300 ± 140 nM
COc1cc(C)ccc1OCC(=O)C1=C(O)CC(C)(C)CC1=O [I36] |  | 20 | Ki [1]: 3400 ± 210 nM
COc1cc(C)ccc1OCC(=O)c1c(C)nn(C)c1O [I37] |  | 40 | Ki [1]: 2700 ± 530 nM
COc1cc(C)ccc1OCC(=O)c1c(C2CC2)nn(C)c1O [I38] |  | 50 | Ki [1]: 2900 ± 38 nM
O=C1CCCC(O)=C1C(=O)COc1ccccc1 [I39] | 1300 ± 56 | 40 | 
Cc1nn(C)c(O)c1C(=O)COc1ccccc1 [I40] | 1200 ± 31 | 50 | 
O=C1CCCC(O)=C1C(=O)COc1nc(Cl)c(Cl)cc1Cl [II1] | 93 ± 7 | 50 | 
CC1(C)CC(=O)C(C(=O)COc2nc(Cl)c(Cl)cc2Cl)=C(O)C1 [II2] | 97 ± 10 | 20 | 
Cc1nn(C)c(O)c1C(=O)COc1nc(Cl)c(Cl)cc1Cl [II3] | 21 ± 4 | 415 | herbicidal activity (in words) [2]: broad-spectrum herbicidal activities; also recorded: excellent herbicidal activities; % injury rice (rice): 40%; crop tolerance of wheat (in words) (wheat): high tolerance; % injury wheat (wheat): 10%; crop tolerance / safety of maize (in words) (maize): high tolerance; % injury maize (maize): 10%; % injury cotton (cotton): 60%; % injury soybean (soybean): 50%; % injury canola (canola): 90%
Cn1nc(C2CC2)c(C(=O)COc2nc(Cl)c(Cl)cc2Cl)c1O [II4] |  | 520 | Ki [1]: 23 ± 6 nM; herbicidal activity (in words) [2]: broad-spectrum herbicidal activities; also recorded: slightly higher herbicidal activity than mesotrione; also recorded: excellent herbicidal activities; herbicidal activity for pre-emergence treatment (in words) ([2]; pre-emergence treatment as printed in the abstract): slightly better than that of mesotrione; % injury rice (rice): 30%; % injury wheat (wheat): 50%; crop tolerance / safety of maize (in words) (maize): safe for weed control in maize fields; also recorded: tolerance; also recorded: safe for use on maize; % injury maize (maize): 10%; % injury cotton (cotton): 60%; % injury soybean (soybean): 30%; % injury canola (canola): 100%
Cn1nc(C(F)(F)F)c(C(=O)COc2nc(Cl)c(Cl)cc2Cl)c1O [II5] |  | 415 | Ki [1]: 120 ± 3 nM; herbicidal activity (in words) [2]: excellent herbicidal activities; % injury rice (rice): 50%; % injury wheat (wheat): 50%; % injury maize (maize): 30%; % injury cotton (cotton): 90%; % injury soybean (soybean): 70%; % injury canola (canola): 100%
Cn1nc(C(F)(F)F)c(C(=O)COc2ccc3ccccc3c2Br)c1O [III4] | 2000 ± 12 | 90 | 
O=C1CCCC(O)=C1C(=O)COc1cccnc1[N+](=O)[O-] [III5] | 230 ± 11 | 50 | 
Cn1nc(C2CC2)c(C(=O)COc2cccnc2[N+](=O)[O-])c1O [III6] | 210 ± 42 | 60 | 
CS(=O)(=O)c1ccc(C(=O)C2C(=O)CCCC2=O)c([N+](=O)[O-])c1 [mesotrione, reference compound] | 13 ± 1 | 510 | % injury rice (rice): 50%; % injury wheat (wheat): 40%; % injury maize (maize): 10%; % injury cotton (cotton): 80%; % injury soybean (soybean): 50%; % injury canola (canola): 100%
